Experimental findings from US11053251B2, “GPR35 modulators” (Prometheus Biosciences, Inc., priority 2019, dated 2021) are described below.

Assay [1] has as its target Human GPR35 (Homo sapiens, UniProt Q9HC97). The experiment in a line: Beta-Arrestin Assay (Tango U2OS cells, LiveBLAzer-FRET B/G). The format is cell-based. The note with it: Human GPR35 expressing Tango U2OS cells, 5 hours treatment. The method, then: Human GPR35 expressing Tango U2OS cells were plated in 384-well format in clear bottom plates at a cell density of 10,000 cells/well and allowed to grow overnight. The next day, cells were treated with serially diluted test compounds for 5 hours. LiveBLAzer-FRET B/G (CCF4-AM) detection reagents were then added and cells were allowed to incubate for 2 hours before reading plates on a BioTek Cytation 5 plate reader. Zaprinast was used as a positive control for dose-response curves. In order to determine EC50 values, data were fit to a four-parameter dose-response curve.

In assay [2] the target is Human GPR35 (Homo sapiens, UniProt Q9HC97, S294R). The experiment in a line: Alternative Beta-Arrestin Assay (JumpIn 294R Tango U2OS cells, LiveBLAzer-FRET B/G). In kind it is cell-based. The note with it: for EC50: Human GPR35 expressing JumpIn 294R Tango U2OS cells, 5 hours treatment; for % inhibition at 50 μM: Table 2. The method in brief:
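U2OS Tango cells expressing human GPR35 S294R, plated overnight, exposed to serially diluted compounds for 5 hours. β-lactamase reporter read with LiveBLAzer-FRET B/G (CCF4-AM) after 2 h; EC50 from four-parameter fit, zaprinast as positive control.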

Structures are written as SMILES. Bounds are passed on as bounds.

Human GPR35 (Homo sapiens, UniProt Q9HC97), sequence (Q9HC97 whole entry): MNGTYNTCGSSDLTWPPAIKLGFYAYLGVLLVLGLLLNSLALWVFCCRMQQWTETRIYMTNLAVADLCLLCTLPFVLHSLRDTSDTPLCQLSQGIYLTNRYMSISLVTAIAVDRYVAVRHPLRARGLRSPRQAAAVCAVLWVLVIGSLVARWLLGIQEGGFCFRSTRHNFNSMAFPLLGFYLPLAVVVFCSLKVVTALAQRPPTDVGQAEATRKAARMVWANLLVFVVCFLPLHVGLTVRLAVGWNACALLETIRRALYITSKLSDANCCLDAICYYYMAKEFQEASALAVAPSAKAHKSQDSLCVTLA
Human GPR35 (Homo sapiens, UniProt Q9HC97, S294R), sequence (Q9HC97 whole entry S294R): as the sequence (Q9HC97 whole entry) above, with S294R counted along it

Usually EC50 stands for the concentration that produces a half-maximal response. A higher EC50 goes with a need for much substance. For the compound `CCOc1cc(B(O)O)ccc1-c1nc2[nH]nnc2c(=O)[nH]1` [Compound 151, (3-ethoxy-4-(7-oxo-6,7-dihydro-3H-[1,2,3]triazolo[4,5-d]pyrimidin-5-yl)phenyl)boronic acid], the EC50 at Human GPR35 [1] and at Human GPR35 [2] was at most 10 µM in each case.

Consider `CCOc1cc(CC(=O)O)ccc1-c1nc2[nH]nnc2c(=O)[nH]1` [Compound 146, 2-(3-ethoxy-4-(7-oxo-6,7-dihydro-3H-[1,2,3]triazolo[4,5-d]pyrimidin-5-yl)phenyl)acetic acid], for which the EC50 at Human GPR35 [1] and at Human GPR35 [2] was at most 10 µM each time.

As for `CCOc1cc(Cc2ccccc2)ccc1-c1nc2[nH]nnc2c(=O)[nH]1` [Compound 174, 5-(4-benzyl-2-ethoxyphenyl)-3,6-dihydro-7H-[1,2,3]triazolo[4,5-d]pyrimidin-7-one], the EC50 at Human GPR35 [1] and at Human GPR35 [2] was at most 10 µM each time.

For `CCOc1cc(-c2cc(N)cc(C(=O)OC)c2)ccc1-c1nc2[nH]nnc2c(=O)[nH]1` [Compound 122, Methyl 5-amino-3′-ethoxy-4′-(7-oxo-6,7-dihydro-3H-[1,2,3]triazolo[4,5-d]pyrimidin-5-yl)-[1,1′-biphenyl]-3-carboxylate], the EC50 at Human GPR35 [1] and on Human GPR35 [2] was at most 10 µM throughout.

For the compound `CCOc1cc(C(N)=O)ccc1-c1nc2[nH]nnc2c(=O)[nH]1` [Compound 135, 3-Ethoxy-4-(7-oxo-6,7-dihydro-3H-[1,2,3]triazolo[4,5-d]pyrimidin-5-yl)benzamide], the EC50 at Human GPR35 [1] and at Human GPR35 [2] was at most 10 µM throughout.

With `CCOc1cc(C(=O)N2CCCC2)ccc1-c1nc2[nH]nnc2c(=O)[nH]1` [Compound 133, 5-(2-Ethoxy-4-(pyrrolidine-1-carbonyl)phenyl)-3,6-dihydro-7H-[1,2,3]triazolo[4,5-d]pyrimidin-7-one], the figures for the EC50 on Human GPR35 [1] and on Human GPR35 [2] were at most 10 µM and 10 to 50 µM, respectively.

Regarding `CCOc1cc(N)ccc1-c1nc2[nH]nnc2c(=O)[nH]1` [Compound 137, 5-(4-amino-2-ethoxyphenyl)-3,6-dihydro-7H-[1,2,3]triazolo[4,5-d]pyrimidin-7-one], the EC50 at Human GPR35 [1] and at Human GPR35 [2] was at most 10 µM in each case.

As to `CCOc1cc(C(=O)NC2CCCC2)ccc1-c1nc2nn[nH]c2c(=O)[nH]1` [Compound 136, N-Cyclopentyl-3-ethoxy-4-(7-oxo-6,7-dihydro-3H-[1,2,3]triazolo[4,5-d]pyrimidin-5-yl)benzamide], the results for the EC50 at Human GPR35 [1] and on Human GPR35 [2] were at most 10 µM and 10 to 50 µM, respectively.

On to `CCOc1cc(-c2cccc(-c3nnn[nH]3)c2)ccc1-c1nc2[nH]nnc2c(=O)[nH]1` [Compound 153, 5-(3-ethoxy-3′-(1H-tetrazol-5-yl)-[1,1′-biphenyl]-4-yl)-3,6-dihydro-7H-[1,2,3]triazolo[4,5-d]pyrimidin-7-one], for which the concentration for a half-maximal effect (EC50) on Human GPR35 [1] and at Human GPR35 [2] was at most 10 µM in each case.

Turning to `CCOc1cc(-c2cncc(C(=O)OC)c2)ccc1-c1nc2[nH]nnc2c(=O)[nH]1` [Compound 112, Methyl 5-(3-ethoxy-4-(7-oxo-6,7-dihydro-3H-[1,2,3]triazolo[4,5-d]pyrimidin-5-yl)phenyl)nicotinate], the EC50 on Human GPR35 [1] and on Human GPR35 [2] was at most 10 µM throughout.

In turn, `CCOc1cc(C(=O)N2CCC[C@H]2C(=O)O)ccc1-c1nc2[nH]nnc2c(=O)[nH]1` [Compound 158, (3-ethoxy-4-(7-oxo-6,7-dihydro-3H-[1,2,3]triazolo[4,5-d]pyrimidin-5-yl)benzoyl)-L-proline] yielded an EC50 on Human GPR35 [1] of over 10 µM. The “% inhibition at 50 μM” value at Human GPR35 [2] is 48% inhibition at.

For the compound `CCOc1cc(-c2nnn[nH]2)ccc1-c1nc2[nH]nnc2c(=O)[nH]1` [Compound 143, 5-(2-ethoxy-4-(1H-tetrazol-5-yl)phenyl)-3,6-dihydro-7H-[1,2,3]triazolo[4,5-d]pyrimidin-7-one], the EC50 at Human GPR35 [1] and at Human GPR35 [2] was at most 10 µM in each case.

With `CCOc1cc(NCC(=O)O)ccc1-c1nc2[nH]nnc2c(=O)[nH]1` [Compound 170, (3-ethoxy-4-(7-oxo-6,7-dihydro-3H-[1,2,3]triazolo[4,5-d]pyrimidin-5-yl)phenyl)glycine], the concentration for a half-maximal effect (EC50) at Human GPR35 [1] and on Human GPR35 [2] was at most 10 µM throughout.

Consider `CCOc1cc(CO)ccc1-c1nc2[nH]nnc2c(=O)[nH]1` [Compound 145, 5-(2-ethoxy-4-(hydroxymethyl)phenyl)-3,6-dihydro-7H-[1,2,3]triazolo[4,5-d]pyrimidin-7-one], for which the EC50 at Human GPR35 [1] and at Human GPR35 [2] was at most 10 µM throughout.

In the case of `CCOc1cc(-c2cccc(C(=O)O)c2)ccc1-c1nc2[nH]nnc2c(=O)[nH]1` [Compound 110, 3′-Ethoxy-4′-(7-oxo-6,7-dihydro-3H-[1,2,3]triazolo[4,5-d]pyrimidin-5-yl)-[1,1′-biphenyl]-3-carboxylic acid], the 50% effective concentration (EC50) on Human GPR35 [1] and on Human GPR35 [2] was at most 10 µM throughout.

`CCOc1cc(N2CCCC2=O)ccc1-c1nc2[nH]nnc2c(=O)[nH]1` [Compound 165, 5-(2-ethoxy-4-(2-oxopyrrolidin-1-yl)phenyl)-3,6-dihydro-7H-[1,2,3]triazolo[4,5-d]pyrimidin-7-one] had an EC50 at Human GPR35 [1] of at most 10 µM. Also, the “% inhibition at 50 μM” value on Human GPR35 [2] stood at 66% inhibition at.

`CCOc1cc(-c2ccccc2)ccc1-c1nc2[nH]nnc2c(=O)[nH]1` [Compound 101, 5-(3-Ethoxy-[1,1′-biphenyl]-4-yl)-3,6-dihydro-7H-[1,2,3]triazolo[4,5-d]pyrimidin-7-one]: the EC50 at Human GPR35 [1] and on Human GPR35 [2] was at most 10 µM in each case.

For the compound `CCOc1cc(NCCCC(=O)O)ccc1-c1nc2[nH]nnc2c(=O)[nH]1` [Compound 164, 4-((3-ethoxy-4-(7-oxo-6,7-dihydro-3H-[1,2,3]triazolo[4,5-d]pyrimidin-5-yl)phenyl)amino)butanoic acid], the EC50 on Human GPR35 [1] and on Human GPR35 [2] was at most 10 µM throughout.

Consider `CCOc1cc(-c2ccccc2C(=O)OC)ccc1-c1nc2[nH]nnc2c(=O)[nH]1` [Compound 106, Methyl 3′-ethoxy-4′-(7-oxo-6,7-dihydro-3H-[1,2,3]triazolo[4,5-d]pyrimidin-5-yl)-[1,1′-biphenyl]-2-carboxylate], for which the EC50 at Human GPR35 [1] and at Human GPR35 [2] was at most 10 µM throughout.

`CCOc1cc(C#N)ccc1-c1nc2[nH]nnc2c(=O)[nH]1` [Compound 142, 3-ethoxy-4-(7-oxo-6,7-dihydro-3H-[1,2,3]triazolo[4,5-d]pyrimidin-5-yl)benzonitrile]: the EC50 at Human GPR35 [1] and at Human GPR35 [2] was at most 10 µM in each case.

For `CCOc1cc(-c2noc(=O)[nH]2)ccc1-c1nc2[nH]nnc2c(=O)[nH]1` [Compound 150, 3-(3-ethoxy-4-(7-oxo-6,7-dihydro-3H-[1,2,3]triazolo[4,5-d]pyrimidin-5-yl)phenyl)-1,2,4-oxadiazol-5(4H)-one], the EC50 on Human GPR35 [1] and on Human GPR35 [2] was at most 10 µM each time.

On to `CCOc1cc(-c2ccccn2)ccc1-c1nc2[nH]nnc2c(=O)[nH]1` [Compound 105, 5-(2-Ethoxy-4-(pyridin-2-yl)phenyl)-3,6-dihydro-7H-[1,2,3]triazolo[4,5-d]pyrimidin-7-one], for which the EC50 at Human GPR35 [1] and on Human GPR35 [2] was at most 10 µM throughout.

Regarding `CCOc1cc(NC(C)=O)ccc1-c1nc2[nH]nnc2c(=O)[nH]1` [Compound 138, N-(3-ethoxy-4-(7-oxo-6,7-dihydro-3H-[1,2,3]triazolo[4,5-d]pyrimidin-5-yl)phenyl)acetamide], the EC50 at Human GPR35 [1] is at most 10 µM; on Human GPR35 [2], 10 to 50 µM.

On to `CCOc1cc(-c2cc(C(=O)O)cc(C(=O)O)c2)ccc1-c1nc2[nH]nnc2c(=O)[nH]1` [Compound 157, 3′-ethoxy-4′-(7-oxo-6,7-dihydro-3H-[1,2,3]triazolo[4,5-d]pyrimidin-5-yl)-[1,1′-biphenyl]-3,5-dicarboxylic acid], for which the EC50 on Human GPR35 [1] and at Human GPR35 [2] was at most 10 µM in each case.

Regarding `CCOc1cc(-c2ccc(N)c(C(=O)O)c2)ccc1-c1nc2[nH]nnc2c(=O)[nH]1` [Compound 181, 4-amino-3′-ethoxy-4′-(7-oxo-6,7-dihydro-3H-[1,2,3]triazolo[4,5-d]pyrimidin-5-yl)-[1,1′-biphenyl]-3-carboxylic acid], the EC50 at Human GPR35 [1] and at Human GPR35 [2] was at most 10 µM in each case.

For `CCOc1cc(N2CC[C@@H](C(=O)O)C2)ccc1-c1nc2[nH]nnc2c(=O)[nH]1` [Compound 167, (R)-1-(3-ethoxy-4-(7-oxo-6,7-dihydro-3H-[1,2,3]triazolo[4,5-d]pyrimidin-5-yl)phenyl)pyrrolidine-3-carboxylic acid], the EC50 on Human GPR35 [1] and on Human GPR35 [2] was at most 10 µM throughout.

`O=C(O)c1ccc(O)c(-c2ccc(-c3nc4[nH]nnc4c(=O)[nH]3)c(OC3CCCC3)c2)c1` [Compound 210, 3′-(Cyclopentyloxy)-6-hydroxy-4′-(7-oxo-6,7-dihydro-3H-[1,2,3]triazolo[4,5-d]pyrimidin-5-yl)-[1,1′-biphenyl]-3-carboxylic acid]: the EC50 at Human GPR35 [2] was at most 10 µM.

For `CCOc1cc(-c2ccc(OCC(=O)O)cc2)ccc1-c1nc2[nH]nnc2c(=O)[nH]1` [Compound 211, 2-((3′-Ethoxy-4′-(7-oxo-6,7-dihydro-3H-[1,2,3]triazolo[4,5-d]pyrimidin-5-yl)-[1,1′-biphenyl]-4-yl)oxy)acetic acid], the EC50 on Human GPR35 [2] is at most 10 µM.

`CCOc1cc(-c2cccc([C@H]3C[C@H]3C(=O)O)c2)ccc1-c1nc2[nH]nnc2c(=O)[nH]1` (single isomer, unassigned) [Compound 308, cis-2-(3′-ethoxy-4′-(7-oxo-6,7-dihydro-3H-[1,2,3]triazolo[4,5-d]pyrimidin-5-yl)-[1,1′-biphenyl]-3-yl)cyclopropane-1-carboxylic acid] came in with an EC50 on Human GPR35 [2] of at most 10 µM.
